Common to all, as to type: biochemical
The target in assay [1] is T1, Nitrile hydratase (PtNHase), alpha subunit (Pseudonocardia thermophila, UniProt Q7SID2+Q7SID3).
T1 sequence (Q7SID2 2-204): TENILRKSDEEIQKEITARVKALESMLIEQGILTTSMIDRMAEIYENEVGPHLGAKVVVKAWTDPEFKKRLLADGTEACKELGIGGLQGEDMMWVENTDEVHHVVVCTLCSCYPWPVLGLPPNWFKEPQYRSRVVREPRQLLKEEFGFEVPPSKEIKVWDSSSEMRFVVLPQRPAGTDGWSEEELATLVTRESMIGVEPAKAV
T1 sequence (Q7SID3 1-233): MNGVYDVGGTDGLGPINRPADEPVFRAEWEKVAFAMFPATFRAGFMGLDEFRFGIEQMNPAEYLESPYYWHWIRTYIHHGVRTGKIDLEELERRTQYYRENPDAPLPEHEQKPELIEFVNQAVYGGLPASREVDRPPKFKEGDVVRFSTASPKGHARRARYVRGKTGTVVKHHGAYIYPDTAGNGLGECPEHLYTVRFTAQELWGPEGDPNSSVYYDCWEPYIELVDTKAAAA
The assay can be described thus: spectrophotometric hydration kinetics at […] nm.

Assay [2] concerns the target T1, Nitrile hydratase (PtNHase), alpha subunit. The assay can be described thus: X-ray crystal structures.
The target is the same in assay [3]. Briefly: X-ray co-crystal structure.

A word on the Km: it is the substrate concentration at which the rate is half of its maximum. The term Ki denotes the equilibrium dissociation constant of an inhibitor or competing ligand from its target. Read a low Ki as higher affinity.

With `C=CC#N` [acrylonitrile], the Km in assay [1] came out at 800 ± 100 µM.
As to `CCCCB(O)O` [BuBA, 1-butaneboronic acid], the Ki in assay [2] is 500 ± 100 nM.
In assay [3], `OB(O)c1ccccc1` [PBA, phenylboronic acid] came in with a Ki of 0.04 ± 0.01 nM.
